Legend:
BDNF mRNA = test: Induction of BDNF mRNA expression in rats; format: in vivo, Sprague Dawley rats; conditions: 0.3, 1.0 and 3.0 μg/kg oral, 8 days; hippocampus (FIG. 1)
Method: (§1) Young adult male Sprague Dawley rats (250-350 g) were administered Compound (A), Compound (E), or a vehicle (80% propylene glycol (human formulation grade; Spectrum Quality Products, Inc., Gardena, Calif., catalog #PR130-55003) and 20% phosphate buffer, pH 9.2) at doses ranging from 0.1 to 5.5 μg/kg daily by oral gavage for eight days. Five hours after the last dose, the animals were sacrificed by decapitation. Each brain was quickly removed and chilled in ice-cold saline. The brain was cut into 2 mm thick coronal sections. Portions of the hippocampus, encompassing the CA1 region, and the medial septum were removed by punching 2 mm^3 sections using a calibrated tissue punch. Punched sections were immediately frozen on dry ice and then stored at -70° C. RNA was prepared from dissected tissue pieces.
(§2) Punches of tissue were homogenized in […] RNAzolB™ (Bioteex Laboratories, Houston, Tex.) using a homogenizer (Tekmar, Germany) until fully homogenized and then 250 μl RNAzilB™ was added. Typically, punches from the corresponding regions of brains of 2 to 3 animals were combined together. RNA was prepared as recommended by the manufacturer (Biotecx Laboratories). […] Concentration of RNA was measured spectrophotometrically and the quality of RNA was visualized on a nondenaturing agarose gel. […]

[1] = Serum calcium in primates; format: in vivo, monkey; conditions: 10 and 30 μg/kg/day oral, 8 days
[2] = Calcemic activity in rats, serum calcium after 7 days oral gavage; format: in vivo, LEW/MOL female rats; conditions: for Calcium in Serum: Table 2A (vehicle 2.46 ± 0.06), ± S.D.
Method: For determining calcemic activity, LEW/MOL female rats (130-170 g) were administered test compounds daily for 7 days by oral gavage. Control rats received the vehicle. Each group consisted of 3 rats. Blood was collected by cardiac puncture on day 7.

NRT-like mRNA = test: Induction of NRT-like mRNA expression in rats; format: in vivo, Sprague Dawley rats; conditions: 0.3, 1.0 and 3.0 μg/kg oral, 8 days; septum (FIG. 1)
Method: as §1, §2

[3] = Serum calcium in fimbria fornix lesioned rats; format: in vivo, Sprague Dawley rats; conditions: oral gavage daily 14 days; data not shown
Method: For the fimbria fornix lesion studies, serum calcium was determined by the following method. Sprague Dawley rats (200-300 g) were dosed as described below. Blood was collected from the animals after sacrifice and allowed to clot at room temperature for 3-10 minutes; cells were pelleted in a clinical centrifuge.
The hippocampal ChAT activity is expressed as a percentage of the hippocampal ChAT activity of the […] control side (i.e., lesion control) in FIGS. 4 to 8.

GDNF mRNA = test: Induction of GDNF mRNA expression in rats; format: in vivo, Sprague Dawley rats; conditions: 0.3, 1.0 and 3.0 μg/kg oral, 8 days; septum and hippocampus (FIG. 1)
Method: as §1, §2

NT-3 mRNA = test: Induction of NT-3 mRNA expression in rats; format: in vivo, Sprague Dawley rats; conditions: 0.3, 1.0 and 3.0 μg/kg oral, 8 days; hippocampus (FIG. 1)
Method: as §1, §2

[4] = Serum calcium / hypercalcemia in rats (2 weeks dosing, 28-day toxicology); format: in vivo, Sprague Dawley rats
NGF mRNA = test: Induction of NGF mRNA expression in rats; format: in vivo, Sprague Dawley rats; conditions: 8 days (FIG. 1)
Method: Five hours after the last dose, the animals were sacrificed by decapitation. Each brain was quickly removed and chilled in ice-cold saline. The brain was cut into 2 mm thick coronal sections. Portions of the hippocampus, encompassing the CA1 region, and the medial septum were removed by punching 2 mm^3 sections using a calibrated tissue punch. Punched sections were immediately frozen on dry ice and then stored at -70° C. RNA was prepared from dissected tissue pieces.
Punches of tissue were homogenized in […] RNAzolB™ (Bioteex Laboratories, Houston, Tex.) using a homogenizer (Tekmar, Germany) until fully homogenized and then 250 μl RNAzilB™ was added. Typically, punches from the corresponding regions of brains of 2 to 3 animals were combined together. RNA was prepared as recommended by the manufacturer (Biotecx Laboratories). Following isopropanol precipitation, RNA was reprecipitated with ethanol and finally resuspended in 25-50 μL of water. Concentration of RNA was measured spectrophotometrically and the quality of RNA was visualized on a nondenaturing agarose gel. Equal amounts of RNA, usually 1-2 μg, were reverse transcribed using Superscript II™ (Gibco BRL), as recommended by the manufacturer. The assay was terminated by incubation at 95° C. 1 min. at 55-60° C. (depending on the primer set) and 2 min. at 72° C. […] After the assay, samples were electrophoresed on 5% nondenaturing acrylamide gels. Gels were dried and the resulting labeled bands were visualized on a phosphorimager (Storm 840, Molecular Dynamics, Sunnyvale, Calif.). The following primers were used: […]
Nerve Growth Factor (NGF). Primers were designed against the rat sequence.

For `C=C1/C(=C\C=C2/CCC[C@]3(C)[C@@H]([C@@H](C)[C@@H](C#CCC(O)(CC)CC)OCC)CC[C@@H]23)C[C@@H](O)C[C@@H]1O` [Compound (A), 1(S),3(R)-dihydroxy-20(R)-(1-ethoxy-5-ethyl-5-hydroxy-2-heptyn-1-yl)-9,10-seco-pregna-5(Z),7(E),10(19)-triene], the “production of BDNF mRNA” value (BDNF mRNA) was “facilitated the production of NRT-like mRNA, GDNF mRNA, NT-3 mRNA, and BDNF mRNA”, the serum calcium levels [1] was “did not increase serum calcium levels and were not hypercalcemic doses” and the “Calcium in Serum” value ([2]; 0.1 μg/kg/day p.o.) was 2.52 ± 0.02 mmol/L. For the same molecule, the “Calcium in Serum” value ([2]; 1.0 μg/kg/day p.o.) was 2.62 ± 0.02 mmol/L, the “Calcium in Serum column: toxicity” value ([2]; 10 μg/kg/day p.o., Table 2A) was “toxic” and the “Calcemic Activity (%)” value ([2]; rat, in vivo, po) was 24%. For the same molecule, the calcemic classification ([2]; summary statement) was “exemplary of low calcemic vitamin D3 analogues”, the “production of NRT-like mRNA” value (NRT-like mRNA) was “facilitated the production of NRT-like mRNA” and the “serum calcium at doses giving the ChAT results” value [3] was “low calcemic dose levels”. For the same molecule, the “production of GDNF mRNA” value (GDNF mRNA) was “facilitated the production of NRT-like mRNA, GDNF mRNA”, the “production of NT-3 mRNA” value (NT-3 mRNA) was “facilitated the production of NRT-like mRNA, GDNF mRNA, NT-3 mRNA” and the serum calcium ([4]; 1.0 μg/kg, after 2 weeks of dosing) was “did not increase serum calcium”. For the same molecule, the “calcemic classification of dose” value ([4]; 1.0 μg/kg, considered in toto) was “hypercalcemic dose when considered in toto”, the “hypercalcemia, 28-day toxicology studies” value ([4]; 1 μg/kg, female vs male Sprague Dawley rats, data not shown) was “hypercalcemic to female, but not male, Sprague Dawley rats” and the hypercalcemia ([4]; 3.0 μg/kg) was “hypercalcemic to the animals”. The “production of NGF mRNA” value (NGF mRNA; 0.3 μg/kg oral) was “did not facilitate the production of NGF mRNA” and the “production of NGF mRNA” value (NGF mRNA; 1.0 and 3.0 μg/kg oral) was “facilitated the production of NGF mRNA”.

From patent publication US6207656A, “Vitamin D analogues and their neuronal effects” (Cephalon, Inc., priority 1998, dated 2001)
